Results taken from patent US20250163057A1, “DCN-1 MODULATING COMPOUNDS AND METHODS OF USE THEREOF” (Cellarity, Inc., priority 2023, published 2025).
Read-outs that look alike come from different tables or passages of the source.

How the values were obtained:
[1] = tested on: Cullin-3 (CUL3) neddylation; assay: AlphaLISA assay for Cullin-3 (CUL3) neddylation in TF 1 cells; assay type: cell-based; conditions: Homo sapiens, 3 hours treatment
Method in brief: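 TF 1 cells in unsupplemented IMDM treated with compound concentrations for 3 h, then lysed. CUL3 neddylation detected by AlphaLISA (biotinylated anti-NEDD8, anti-CUL3 acceptor beads overnight, streptavidin donor beads 1 h); normalized to vehicle (0%) and 1 μM DI-1548 (100%), IC50 from Hill fits.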

[2] = molecular target: DCN1 (DCUND1) protein PONY domain (Homo sapiens (Human), UniProt Q96GG9); assay: TR-FRET assay, DCN1 binding with FAM-labeled probe
Method in brief: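 Binding was read as the TR-FRET ratio between a FAM-tagged inhibitor probe and Tb-labeled biotinylated E. coli-expressed DCN1 PONY domain, measured 1, 5 and 24 h after compound addition. The two setups used 5 nM protein/20 nM FAM-probe or 0.31 nM protein/900 nM total probe (100 nM labeled), in TritonX buffer with 200 mM NaCl.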

[3] = molecular target: DCN1 protein (Homo sapiens (Human), UniProt Q96GG9); assay: Intact Protein MS Analysis with the RapidFire-TOF System (covalent adduct formation); assay type: binding; conditions: MS Emax; 400 nM DCN1, 3 hours at room temperature
Method in brief: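 Tag-cleaved human DCN1 (400 nM) expressed in E. coli, in 25 mM Tris-HCl, 200 mM NaCl, 1 mM DTT, was incubated with 11 compound concentrations for 3 h at room temperature and quenched with 0.2% formic acid. Intact-protein Q-TOF MS with deconvolution detected the compound adduct mass.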

[4] = 24 hr after treatment with compound, read-out: TR FRET IC50 24 hr
[5] = read-out: TR FRET IC50 1 hr, 1 hr after treatment with compound
[6] = TR FRET IC50 1 hr (nM), 1 hr after treatment with compound

Sequence of DCN1 protein (Q96GG9 whole entry): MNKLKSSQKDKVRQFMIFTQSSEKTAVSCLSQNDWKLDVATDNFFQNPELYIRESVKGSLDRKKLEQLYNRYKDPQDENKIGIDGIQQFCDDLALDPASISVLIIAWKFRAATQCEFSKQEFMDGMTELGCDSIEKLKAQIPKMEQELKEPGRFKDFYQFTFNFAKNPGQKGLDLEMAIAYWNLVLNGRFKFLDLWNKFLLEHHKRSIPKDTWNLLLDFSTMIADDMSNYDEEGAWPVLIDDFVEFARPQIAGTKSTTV
Sequence of DCN1 (DCUND1) protein PONY domain (Q96GG9 60-248): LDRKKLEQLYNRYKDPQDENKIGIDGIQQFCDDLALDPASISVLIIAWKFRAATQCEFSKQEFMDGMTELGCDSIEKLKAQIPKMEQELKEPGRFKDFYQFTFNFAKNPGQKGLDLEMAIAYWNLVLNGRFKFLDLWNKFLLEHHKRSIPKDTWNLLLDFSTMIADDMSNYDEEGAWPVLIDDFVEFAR

| SMILES | IC50 ([1]; TF-1, 3 h) [nM] | IC50 [2, 4] [nM] | IC50 [2, 5] [nM] | % Adduct Formation [3] | IC50 [2, 6] [nM] | IC50 [1] [nM] |
| --- | --- | --- | --- | --- | --- | --- |
| CCN1C(=O)[C@@H](NC(=O)c2cccc(C(F)(F)F)c2)[C@@H](c2ccc(F)cc2)c2c([C@@H](CN(C)C)NC#N)nn(-c3ccccc3)c21 (mixture of isomers) [Compound I-272] | ≤ 100 | ≤ 200 | ≤ 200 | +++ (MS Emax % adduct formation greater than 80.0 and less than or equal to 100.0) |  |  |
| CCN1C(=O)[C@@H](NC(=O)c2cccc(C(F)(F)F)c2)[C@@H](c2ccc(F)cc2)c2c(C(=O)N3CCC[C@H]3C#N)nn(-c3cccc(OCCN4CCN(C5COC5)CC4)c3)c21 [Compound I-340] | ≤ 100 | ≤ 200 | ≤ 200 | +++ (MS Emax % adduct formation greater than 80.0 and less than or equal to 100.0) |  |  |
| CCN1C(=O)[C@@H](NC(=O)c2ccn(C(F)(F)F)n2)[C@@H](c2ccc(F)cc2)c2c(C(=O)N3[C@H](C#N)C[C@H]4C[C@H]43)nn(-c3ccccc3)c21 [Compound I-344] | ≤ 100 | ≤ 200 |  | ++ (MS Emax % adduct formation greater than 30.0 and less than or equal to 80.0) | 200 to 1000 |  |
| CCN1C(=O)[C@@H](NC(=O)c2cccc(C(F)(F)F)c2)[C@@H](c2ccc(F)cc2)c2c(C(=O)N(CC#N)CCN3CC4CC(C3)O4)nn(-c3ccccc3)c21 (mixture of isomers) [Compound I-322] | ≤ 100 | ≤ 200 | ≤ 200 | +++ (MS Emax % adduct formation greater than 80.0 and less than or equal to 100.0) |  |  |
| CCN1C(=O)[C@@H](NC(=O)c2cccc(C(F)(F)F)c2)[C@@H](c2ccc(F)cc2)c2c(C(=O)N(C)[C@@H](C#N)CCN3CC4CC(C3)O4)nn(-c3ccccc3)c21 [Compound I-313] | ≤ 100 | ≤ 200 | ≤ 200 | ++ (MS Emax % adduct formation greater than 30.0 and less than or equal to 80.0) |  |  |
| CCN1C(=O)[C@@H](NC(=O)c2cccc(C(F)(F)F)c2)[C@@H](c2ccc(F)cc2)c2c(C(=O)N3CCC[C@H]3C#N)nn(-c3cccc(OCCN4CCOCC4)c3)c21 [Compound I-339] | ≤ 100 | ≤ 200 |  | +++ (MS Emax % adduct formation greater than 80.0 and less than or equal to 100.0) | 1000 to 3000 |  |
| CCN1C(=O)[C@@H](NC(=O)c2cccc(C(F)(F)F)c2)[C@@H](c2ccc(F)cc2)c2c(C(=O)N(C)[C@@H](C#N)CCN3CCN(C4COC4)CC3)nn(-c3ccccc3)c21 [Compound I-317] | ≤ 100 | ≤ 200 | ≤ 200 | +++ (MS Emax % adduct formation greater than 80.0 and less than or equal to 100.0) |  |  |
| CCN1C(=O)[C@@H](NC(=O)c2cccc(C(F)(F)F)c2)[C@@H](C2CC2)c2c(C(=O)N3CCOC[C@H]3C#N)nn(-c3ccccc3)c21 [Compound I-382] | ≤ 100 | ≤ 200 |  | +++ (MS Emax % adduct formation greater than 80.0 and less than or equal to 100.0) | 200 to 1000 |  |
| CCN1C(=O)[C@@H](NC(=O)c2cccc(C(F)(F)F)c2)[C@@H](c2ccc(F)cc2)c2c(C(=O)N(C)[C@H](C#N)CCN(C)C3COC3)nn(-c3ccccc3)c21 [Compound I-310] | ≤ 100 | ≤ 200 | ≤ 200 | +++ (MS Emax % adduct formation greater than 80.0 and less than or equal to 100.0) |  |  |
| C=C(CN1CCOCC1)C(=O)NCc1nn(-c2ccccc2)c2c1[C@H](c1ccc(F)cc1)[C@H](NC(=O)c1cccc(C(F)(F)F)c1)C(=O)N2CC (racemic) [Compound I-67] | 100 to 1000 | ≤ 200 | ≤ 200 | + (MS Emax % adduct formation greater than or equal to 0.0 and less than or equal to 30.0) |  |  |
| C=C(CN1CC2(COC2)C1)C(=O)NCc1nn(-c2ccccc2)c2c1[C@H](c1ccc(F)cc1)[C@@H](NC(=O)c1cccc(C(F)(F)F)c1)C(=O)N2CC [Compound I-149] | ≤ 100 | ≤ 200 | ≤ 200 | +++ (MS Emax % adduct formation greater than 80.0 and less than or equal to 100.0) |  |  |
| CCN1C(=O)[C@@H](NC(=O)c2cccc(C(F)(F)F)c2)[C@@H](c2ccc(C)cc2)c2c(C(=O)N(C)C(C)C#N)nn(C3CC3)c21 (stereo partly drawn) [Compound I-306] | ≤ 100 | ≤ 200 | ≤ 200 | ++ (MS Emax % adduct formation greater than 30.0 and less than or equal to 80.0) |  |  |
| CCN1C(=O)[C@@H](NC(=O)c2cccc(C(F)(F)F)c2)[C@@H](c2ccc(F)cc2)c2c(C(=O)N(C)CC#N)nn(C3CCOCC3)c21 [Compound I-366] | ≤ 100 | ≤ 200 | ≤ 200 | +++ (MS Emax % adduct formation greater than 80.0 and less than or equal to 100.0) |  |  |
| CCN1C(=O)[C@@H](NC(=O)c2cccc(C(F)(F)F)c2)[C@@H](c2ccc(F)cc2)c2c(C(=O)N3CCC[C@H]3C#N)nn(-c3cccc(OCCN4CCC5(CC4)COC5)c3)c21 [Compound I-341] | ≤ 100 | ≤ 200 | ≤ 200 | +++ (MS Emax % adduct formation greater than 80.0 and less than or equal to 100.0) |  |  |
| C=C(CN1C[C@@H]2C[C@H]1CO2)C(=O)NCc1nn(-c2ccccc2)c2c1[C@H](c1ccc(F)cc1)[C@H](NC(=O)c1cccc(C(F)(F)F)c1)C(=O)N2CC (mixture of isomers) [Compound I-12] | ≤ 100 | ≤ 200 | ≤ 200 | +++ (MS Emax % adduct formation greater than 80.0 and less than or equal to 100.0) |  |  |
| CCN1C(=O)[C@@H](NC(=O)c2cccc(C(F)(F)F)c2)[C@@H](c2ccc(F)cc2)c2c(C(=O)N3CCC[C@H]3C#N)nn(C3CC3)c21 [Compound I-354] | ≤ 100 | ≤ 200 | ≤ 200 | ++ (MS Emax % adduct formation greater than 30.0 and less than or equal to 80.0) |  |  |
| CCN1C(=O)[C@@H](NC(=O)c2cccc(C(F)(F)F)c2)[C@@H](c2ccc(F)cc2)c2c(C(=O)N(C)[C@H](C)C#N)nn(C3CCOCC3)c21 [Compound I-367] | ≤ 100 | ≤ 200 | ≤ 200 | +++ (MS Emax % adduct formation greater than 80.0 and less than or equal to 100.0) |  |  |
| CCN1C(=O)[C@@H](NC(=O)c2cccc(C(F)(F)F)c2)[C@@H](c2ccc(F)cc2)c2c(C(=O)N(CC#N)CCO)nn(-c3ccccc3)c21 (stereo in doubt) [Compound I-286] | ≤ 100 | ≤ 200 | ≤ 200 | + (MS Emax % adduct formation greater than or equal to 0.0 and less than or equal to 30.0) |  |  |
| CCN1C(=O)[C@@H](NC(=O)c2ccc3c(c2)CCC3)[C@@H](C2CC2)c2c(C(=O)N3[C@H](C#N)C[C@H]4C[C@H]43)nn(C3CCOCC3)c21 [Compound I-391] |  | ≤ 200 | ≤ 200 | +++ (MS Emax % adduct formation greater than 80.0 and less than or equal to 100.0) |  | ≤ 100 |
| CCCn1nc(C(=O)N2[C@H](C#N)C[C@H]3C[C@H]32)c2c1N(CC)C(=O)[C@@H](NC(=O)c1cccc(C(F)(F)F)c1)[C@H]2c1ccc(F)cc1 [Compound I-331] | ≤ 100 | ≤ 200 | ≤ 200 | +++ (MS Emax % adduct formation greater than 80.0 and less than or equal to 100.0) |  |  |
| CCN1C(=O)[C@@H](NC(=O)c2cccc(C(F)(F)F)c2)[C@@H](c2ccc(F)cc2)c2c(C(=O)N(C)[C@H](C#N)CCN3CCN(C4COC4)CC3)nn(-c3ccccc3)c21 [Compound I-316] | ≤ 100 | ≤ 200 | ≤ 200 | +++ (MS Emax % adduct formation greater than 80.0 and less than or equal to 100.0) |  |  |
| CCN1C(=O)[C@H](NC(=O)c2cccc(C(F)(F)F)c2)[C@H](c2ccc(F)cc2)c2c(C(=O)N3CCOCC3C#N)nn(-c3ccccc3)c21 (single isomer, unassigned) [Compound I-296] | ≤ 100 | ≤ 200 |  | ++ (MS Emax % adduct formation greater than 30.0 and less than or equal to 80.0) | 1000 to 3000 |  |
| CCN1C(=O)[C@@H](NC(=O)c2cccc(C(F)(F)F)c2)[C@@H](c2ccc(F)cc2)c2c(C(=O)N(CC#N)CCC(=O)OC)nn(-c3ccccc3)c21 (stereo in doubt) [Compound I-288] | ≤ 100 | ≤ 200 | ≤ 200 | +++ (MS Emax % adduct formation greater than 80.0 and less than or equal to 100.0) |  |  |
| CCN1C(=O)[C@@H](NC(=O)c2cccc(C(F)(F)F)c2)[C@@H](C2CC2)c2c(C(=O)N(C)C(C)C#N)nn(C3CCOCC3)c21 (mixture of isomers) [Compound I-349] | ≤ 100 | ≤ 200 | ≤ 200 | +++ (MS Emax % adduct formation greater than 80.0 and less than or equal to 100.0) |  |  |
